This is an account of results in patent publication US9834542B2, “LXR modulators” (BRISTOL-MYERS SQUIBB COMPANY, priority 2013, dated 2017).

The target in the assay is T1, LXRβ (Homo sapiens, UniProt P55055).
T1 construct: Co-transfection expression plasmids, comprising full-length LXRα (pCMX-h LXRα[…] or LXRβ (pCMX-hLXRβ)); expressed in transfected cells; host or cells: CV-1 African Green Monkey Kidney Cells
T1 sequence (P55055 1-460): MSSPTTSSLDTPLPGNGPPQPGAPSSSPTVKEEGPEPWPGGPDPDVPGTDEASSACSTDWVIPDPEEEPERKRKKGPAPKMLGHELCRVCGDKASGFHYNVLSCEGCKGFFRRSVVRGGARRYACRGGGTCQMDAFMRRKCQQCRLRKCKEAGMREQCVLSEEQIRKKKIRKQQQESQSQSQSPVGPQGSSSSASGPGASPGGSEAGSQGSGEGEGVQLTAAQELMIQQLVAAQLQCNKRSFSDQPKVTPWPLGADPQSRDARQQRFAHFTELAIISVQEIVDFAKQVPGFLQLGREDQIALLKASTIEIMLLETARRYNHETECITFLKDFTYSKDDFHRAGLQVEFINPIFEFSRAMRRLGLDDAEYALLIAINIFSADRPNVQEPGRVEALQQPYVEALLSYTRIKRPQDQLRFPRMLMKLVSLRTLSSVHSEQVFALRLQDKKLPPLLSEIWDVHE
T1 sequence (P19793 1-462 partner): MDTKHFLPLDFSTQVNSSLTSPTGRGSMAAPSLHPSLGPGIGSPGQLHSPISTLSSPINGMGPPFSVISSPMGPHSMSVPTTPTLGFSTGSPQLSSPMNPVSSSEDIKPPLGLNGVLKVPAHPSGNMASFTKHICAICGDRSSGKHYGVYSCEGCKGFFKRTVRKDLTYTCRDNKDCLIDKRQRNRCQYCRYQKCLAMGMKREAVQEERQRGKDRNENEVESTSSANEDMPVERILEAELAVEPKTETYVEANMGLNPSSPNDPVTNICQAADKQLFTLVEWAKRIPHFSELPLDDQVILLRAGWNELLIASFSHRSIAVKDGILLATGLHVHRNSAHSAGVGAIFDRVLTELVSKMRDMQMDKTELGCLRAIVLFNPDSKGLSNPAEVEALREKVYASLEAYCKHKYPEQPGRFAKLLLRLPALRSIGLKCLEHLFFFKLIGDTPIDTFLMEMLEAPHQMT
The experiment in a line: Co-transfection assay (LXRE luciferase reporter), LXRβ. The assay is classed as cell-based. The settings on record: for EC50: CV-1 cells transfected with pCMX-hLXRβ and LXREx1-Tk-Luciferase, 20 hours incubation; for Emax: LXRβ co-transfection, relative to high control 1-(2,4-difluorobenzyl)-2-oxo-6-(4-phenoxyphenyl)-4-(trifluoromethyl)-1,2-dihydropyridine-3-carbonitrile, read-out: % Efficacy. The method in brief:
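CV-1 cells transiently co-transfected with full-length human LXRβ (or LXRα), LXREx1-Tk-luciferase reporter and β-galactosidase control; compound added (10 μM final in single-point, 11-point ½-log curves, ≤0.5% DMSO) for 20 h at 37 °C. Luciferase read; EC50 from four-parameter fit, efficacy relative to reference agonist high control.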
In general terms: A reporter such as luciferase makes a cellular process visible.

`Cc1nc(-c2cc(-c3cc(F)c(CO)c(S(C)(=O)=O)c3)ccc2-n2cc(C(F)(F)F)nc2C)c(-c2ccc(OC(F)F)c(OC3CC3)c2)o1` [Example 387, (3′-(5-(3-cyclopropoxy-4-(difluoromethoxy)phenyl)-2-methyloxazol-4-yl)-3-fluoro-4′-(2-methyl-4-(trifluoromethyl)-1H-imidazol-1-yl)-5-(methylsulfonyl)biphenyl-4-yl)methanol]: a half-maximal effect (EC50) was put at 19 nM and the Emax was 73%.

As to `Cc1nc(-c2cc(-c3cccc(S(C)(=O)=O)c3)ccc2-n2cc(C(F)(F)F)nc2C)c(-c2cccnc2OC(F)F)o1` [Example 388, 5-(2-(difluoromethoxy)pyridin-3-yl)-2-methyl-4-(4-(2-methyl-4-(trifluoromethyl)-1H-imidazol-1-yl)-3′-(methylsulfonyl)biphenyl-3-yl)oxazole], the concentration giving a half-maximal response (EC50) – broadly, the concentration at which the effect is half-maximal – was 1380 nM and the Emax amounted to 32%.

In the case of `Cc1nc(-c2cc(-c3cc(F)c(CO)c(S(C)(=O)=O)c3)ccc2-n2cc(C(F)(F)F)nc2C)c(-c2cccnc2OC(F)F)o1` [Example 389, (3′-(5-(2-(difluoromethoxy)pyridin-3-yl)-2-methyloxazol-4-yl)-3-fluoro-4′-(2-methyl-4-(trifluoromethyl)-1H-imidazol-1-yl)-5-(methylsulfonyl)biphenyl-4-yl)methanol], it took 239 nM to reach a half-maximal effect (EC50) and the Emax came to 39%.

As for `Cc1nc(-c2cc(-c3cccc(S(C)(=O)=O)c3)ccc2-n2cc(C(F)(F)F)nc2C)c(-c2cccnc2C2CC2)o1` [Example 390, 5-(2-cyclopropylpyridin-3-yl)-2-methyl-4-(4-(2-methyl-4-(trifluoromethyl)-1H-imidazol-1-yl)-3′-(methylsulfonyl)biphenyl-3-yl)oxazole], a half-maximal effect (EC50) was put at 2080 nM and the Emax came out at 62%.

Consider `Cc1nc(-c2cc(-c3cc(F)c(CO)c(S(C)(=O)=O)c3)ccc2-n2cc(C(F)(F)F)nc2C)c(-c2cccnc2C2CC2)o1` [Example 391], for which a half-maximal effect (EC50) was put at 207 nM and the Emax is 51%.

In the case of `Cc1nc(-c2cc(-c3cccc(S(C)(=O)=O)c3)ccc2-n2cc(C(F)(F)F)nc2C)c(-c2ccc(OC(F)F)c(OC(F)F)c2)o1` [Example 392, 5-(3,4-bis(difluoromethoxy)ohenyl)-2-methyl-4-(4-(2-methyl-4-(trifluoromethyl)-1H-imidazol-1-yl)-3′-(methylsulfonyl)biphenyl-3-yl)oxazole], the midpoint of the response, the EC50, lay at 187 nM and the Emax came to 53%.

In the case of `Cc1nc(-c2cc(-c3cc(F)c(CO)c(S(C)(=O)=O)c3)ccc2-n2cc(C(F)(F)F)nc2C)c(-c2ccc(OC(F)F)c(OC(F)F)c2)o1` [Example 393, (3′-(5-(3,4-bis(difluoromethoxy)phenyl)-2-methyloxazol-4-yl)-3-fluoro-4′-(2-methyl-4-(trifluoromethyl)-1H-imidazol-1-yl)-5-(methylsulfonyl)biphenyl-4-yl)methanol], the EC50 turned out to be 64 nM and the Emax amounted to 56%.

For the molecule `Cc1nc(-c2cc(-c3cccc(S(C)(=O)=O)c3)ccc2-n2cc(C(F)(F)F)nc2C)c(-c2cccnc2C)o1` [Example 394, 2-methyl-4-(4-(2-methyl-4-(trifluoromethyl)-1H-imidazol-1-yl)-3′-(methylsulfonyl)biphenyl-3-yl)-5-(2-methylpyridin-3-yl)oxazole], a half-maximal response (EC50) required 615 nM and the Emax came to 60%.

Turning to `Cc1nc(-c2cc(-c3cc(F)c(CO)c(S(C)(=O)=O)c3)ccc2-n2cc(C(F)(F)F)nc2C)c(-c2cccnc2C)o1` [Example 395, (3-fluoro-4′-(2-methyl-4-(trifluoromethyl)-1H-imidazol-1-yl)-3′-(2-methyl-5-(2-methylpyridin-3-yl)oxazol-4-yl)-5-(methylsulfonyl)biphenyl-4-yl)methanol], the EC50 turned out to be 1230 nM and the Emax is 61%.

On to `Cc1nc(-c2cc(-c3cccc(S(C)(=O)=O)c3)ccc2-n2cc(C(F)(F)F)nc2C)c(-c2ccc(OC(F)F)cc2Cl)o1` [Example 396, 5-(2-chloro-4-(difluoromethoxy)phenyl)-2-methyl-4-(4-(2-methyl-4-(trifluoromethyl)-1H-imidazol-1-yl)-3′-(methylsulfonyl)biphenyl-3-yl)oxazole], for which the EC50 was 34 nM and the Emax is 71%.

As to `Cc1nc(-c2cc(-c3cc(F)c(CO)c(S(C)(=O)=O)c3)ccc2-n2cc(C(F)(F)F)nc2C)c(-c2ccc(OC(F)F)cc2Cl)o1` [Example 397, (3′-(5-(2-chloro-4-(difluoromethoxy)phenyl)-2-methyloxazol-4-yl)-3-fluoro-4′-(2-methyl-4-(trifluoromethyl)-1H-imidazol-1-yl)-5-(methylsulfonyl)biphenyl-4-yl)methanol], it took 25 nM to reach a half-maximal effect (EC50) and the Emax was 63%.

For the molecule `Cc1nc(-c2cc(-c3cccc(S(C)(=O)=O)c3)ccc2-n2cc(C(F)(F)F)nc2C)c(-c2ccc(OC(F)F)c(Cl)c2)o1` [Example 398, 5-(3-chloro-4-(difluoromethoxy)phenyl)-2-methyl-4-(4-(2-methyl-4-(trifluoromethyl)-1H-imidazol-1-yl)-3′-(methylsulfonyl)biphenyl-3-yl)oxazole], the 50% effective concentration (EC50) came to 55 nM and the Emax stood at 79%.

Turning to `Cc1nc(-c2cc(-c3cc(F)c(CO)c(S(C)(=O)=O)c3)ccc2-n2cc(C(F)(F)F)nc2C)c(-c2ccc(OC(F)F)c(Cl)c2)o1` [Example 399, (3′-(5-(3-chloro-4-(difluoromethoxy)phenyl)-2-methyloxazol-4-yl)-3-fluoro-4′-(2-methyl-4-(trifluoromethyl)-1H-imidazol-1-yl)-5-(methylsulfonyl)biphenyl-4-yl)methanol], the EC50 stood at 28 nM and the Emax was 76%.

As to `COc1ncc(F)cc1-c1oc(C)nc1-c1cc(-c2cccc(S(C)(=O)=O)c2)ccc1-n1cc(C(F)(F)F)nc1C` [Example 400], the EC50 worked out at 1160 nM and the Emax was found to be 55%.

`COc1ncc(F)cc1-c1oc(C)nc1-c1cc(-c2cc(F)c(CO)c(S(C)(=O)=O)c2)ccc1-n1cc(C(F)(F)F)nc1C` [Example 401, (3-fluoro-3′-(5-(5-fluoro-2-methoxypyridin-3-yl)-2-methyloxazol-4-yl)-4′-(2-methyl-4-(trifluoromethyl)-1H-imidazol-1-yl)-5-(methylsulfonyl)biphenyl-4-yl)methanol]: the EC50 was 272 nM and the Emax was 60%.

Turning to `Cc1nc(-c2cc(-c3ccc(CO)c(S(C)(=O)=O)c3)ccc2-n2cc(C(F)(F)F)nc2C)c(-c2ccc(OC(F)F)c(F)c2)o1` [Example 402, (3′-(5-(4-(difluoromethoxy)-3-fluorophenyl)-2-methyloxazol-4-yl)-4′-(2-methyl-4-(trifluoromethyl)-1H-imidazol-1-yl)-3-(methylsulfonyl)biphenyl-4-yl)methanol], a half-maximal response (EC50) required 43 nM and the Emax is 88%.

As for `Cc1nc(-c2cc(-c3cccc(S(C)(=O)=O)c3)ccc2-n2cc(C(F)(F)F)nc2C)c(-c2ccc(OCC3CC3)c(F)c2)o1` [Example 404, 5-(4-(cyclopropylmethoxy)-3-fluorophenyl)-2-methyl-4-(4-(2-methyl-4-(trifluoromethyl)-1H-imidazol-1-yl)-3′-(methylsulfonyl)biphenyl-3-yl)oxazole], the EC50 was 159 nM and the Emax worked out at 69%.
